Our source for the IC50 values is patent US5990158A, “Carboxylic acid derivatives, method of manufacturing the same and therapeutic agents containing these compounds” (Kotobuki Seiyaku Co., Ltd., priority 1996, dated 1999).

The target of one assay is T1, MMP-9 (gelatinase B) (Homo sapiens, UniProt P14780).
T1 construct: purchased Yagai Co. Ltd; host or cells: human fibrosarcoma
Description: MMP-9 (gelatinase B) inhibitory activity, FITC-labeled type IV collagen degradation. It is filed as biochemical. To be noted: 50% inhibition of collagen type IV degradation; MMP-9 derived from human fibrosarcoma; 42° C., 4 h. As to the method:
(§1) Experiment 2: MMP-2 (gelatinase A) and MMP-9 (gelatinase B) inhibitory activities.
(§2) Pro MMP-2 was obtained from culture medium separated from human pro-MMP-2 cDNA tranfected COS-1 cells. It was activated by 1 mM (p-aminophenyl)mercury acetic acid, and MMP-9, derived human fibrosarcome,was purchased from Yagai Co. Ltd. Inhibition of both enzyme activities were estimated by enzyme assay using type IV collagenase activity assay kit (Yagai Co. Ltd., Biswaz, C. et al., J. Cell.Biochem., 28, 39 (1984)). MMP-2 or MMP-9 (0.01 U/ml), test compound (several concentrations), and FITC-labeled type IV collagen (derived bovine placenta, 25 μg) were incubated in 100 μl of 0.05M Tris - HCl buffer (pH 7.5) containing 200 mM NaCl and 5 mM CaCl2 at 42° C. for 4 h. Inhibitory activity of compound was evaluated by same as that of MMP-1 assay. Unchanged type IV collagen was precipitated by centrifugation, and the degradation percent of substrate was calculated by comparison with a fluorescence intensity of heat denatured substrate as 100%. Inhibition of enzyme activity was expressed as an IC50 value which was the concentration of test compound necessary to produce 50% inhibition of collagen type IV degradation by enzyme.

The target of the next assay is T2, MMP-2 (gelatinase A) (Homo sapiens, UniProt P08253).
T2 construct: made in house; host or cells: COS-1 cells transfected with human pro-MMP-2 cDNA (secreted into culture medium)
T2 sequence (P08253 110-660): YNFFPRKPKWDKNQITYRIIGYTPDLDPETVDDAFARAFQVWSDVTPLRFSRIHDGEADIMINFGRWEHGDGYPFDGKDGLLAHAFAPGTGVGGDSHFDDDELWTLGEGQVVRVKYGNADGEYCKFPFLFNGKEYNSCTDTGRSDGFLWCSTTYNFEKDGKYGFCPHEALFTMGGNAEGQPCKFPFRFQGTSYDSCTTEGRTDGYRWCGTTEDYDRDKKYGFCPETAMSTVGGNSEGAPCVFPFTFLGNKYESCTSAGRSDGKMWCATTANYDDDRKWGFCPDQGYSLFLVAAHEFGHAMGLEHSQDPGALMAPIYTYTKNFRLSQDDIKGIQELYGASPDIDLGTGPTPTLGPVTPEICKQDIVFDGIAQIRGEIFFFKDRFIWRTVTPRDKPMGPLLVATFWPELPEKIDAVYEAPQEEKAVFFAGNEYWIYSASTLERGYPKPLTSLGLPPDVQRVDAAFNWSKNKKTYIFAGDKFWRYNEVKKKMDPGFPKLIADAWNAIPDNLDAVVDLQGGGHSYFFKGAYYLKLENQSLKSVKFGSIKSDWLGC
Briefly: MMP-2 (gelatinase A) inhibitory activity, FITC-labeled type IV collagen degradation. The conditions noted are these: 50% inhibition of collagen type IV degradation; activated pro MMP-2 from transfected COS-1 cells; 42° C., 4 h. It is filed as biochemical. As to the method:
as §1, §2

A word on the IC50: it is the midpoint of a concentration-inhibition curve. A low value points to inhibition by little substance.

T1 sequence (P14780 94-707): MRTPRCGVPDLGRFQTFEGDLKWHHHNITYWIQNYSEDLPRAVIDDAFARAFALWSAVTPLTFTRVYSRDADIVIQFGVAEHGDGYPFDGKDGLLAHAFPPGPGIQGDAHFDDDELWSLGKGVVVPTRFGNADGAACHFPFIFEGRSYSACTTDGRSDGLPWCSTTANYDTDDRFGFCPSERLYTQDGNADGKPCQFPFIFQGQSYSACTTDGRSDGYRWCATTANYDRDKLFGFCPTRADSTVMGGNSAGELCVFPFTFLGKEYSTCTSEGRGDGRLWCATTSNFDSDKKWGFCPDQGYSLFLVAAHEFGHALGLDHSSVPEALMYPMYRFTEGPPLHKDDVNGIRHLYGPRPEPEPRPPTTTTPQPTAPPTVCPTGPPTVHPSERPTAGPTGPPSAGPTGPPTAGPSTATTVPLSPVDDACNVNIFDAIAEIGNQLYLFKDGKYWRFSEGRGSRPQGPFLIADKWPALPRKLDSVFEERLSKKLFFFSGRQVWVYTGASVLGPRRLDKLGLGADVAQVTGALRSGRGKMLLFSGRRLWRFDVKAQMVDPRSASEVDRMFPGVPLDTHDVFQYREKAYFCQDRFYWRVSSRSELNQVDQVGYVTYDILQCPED

As to `CCOc1ccc(OCCC[C@H](CC(=O)NO)C(=O)N[C@@H](Cc2ccccc2)C(=O)NC)cc1` [Compound 43, N-[(2R)-2-(2'-Hydroxyamino-2'-oxo-ethyl)-5-[(4-ethoxy-phenyl)oxy]pentanoyl]-L-phenylalanine N-Methylamide], the IC50 amounted to 0.14 nM against MMP-9 (gelatinase B) and 0.97 nM on MMP-2 (gelatinase A).

Consider `CNC(=O)[C@H](Cc1ccccc1)NC(=O)[C@H](CCCCOc1ccc(OC)cc1)CC(=O)NO` [Compound 44, N-[(2R)-2-(2'-Hydroxyamino-2'-oxo-ethyl)-6-[(4-methoxyphenyl)oxy]hexanoyl]-L-phenylalanine N-Methylamide], for which the IC50 came out at 0.41 nM against MMP-9 (gelatinase B) and 1.3 nM against MMP-2 (gelatinase A).

With `CCOc1ccc(OCCCC[C@H](CC(=O)NO)C(=O)N[C@@H](Cc2ccccc2)C(=O)NC)cc1` [Compound 45, N-[(2R)-2-(2'-Hydroxyamino-2'-oxo-ethyl)-6-[(4-ethoxy-phenyl)oxy]hexanoyl]-L-phenylalanine N-Methylamide], the concentration for half-maximal inhibition (IC50) at MMP-9 (gelatinase B) is 0.72 nM; against MMP-2 (gelatinase A) it was 4 nM.

For the compound `C=CCOc1ccc(OCCCC[C@H](CC(=O)NO)C(=O)N[C@@H](Cc2ccccc2)C(=O)NC)cc1` [Compound 46, N-[(2R)-2-(2'-Hydroxyamino-2'-oxo-ethyl)-6-[(4-allyloxy-phenyl)oxy]hexanoyl]-L-phenylalanine N-Methylamide], the IC50 on MMP-9 (gelatinase B) worked out at 160 nM; against MMP-2 (gelatinase A) it was 250 nM.

Regarding `CNC(=O)[C@H](Cc1ccc(OC)cc1)NC(=O)[C@H](CCOc1ccc(OC)cc1)CC(=O)NO` [Compound 47, (2S)-2-[(2R)-2-(2'-Hydroxyamino-2'-oxo-ethyl)-4-[(4-methoxyphenyl)oxy]-butyloyl]amino-3-(4-methoxy)phenylpropanoylmethylamide], the IC50 on MMP-9 (gelatinase B) stood at 1.2 nM; at MMP-2 (gelatinase A), 11 nM.

As to `CNC(=O)[C@H](Cc1ccc(OC)cc1)NC(=O)[C@H](CCCOc1ccc(OC)cc1)CC(=O)NO` [Compound 48, (2S)-2-[(2R)-2-(2'-Hydroxyamino-2'-oxo-ethyl)-5-[(4-methoxyphenyl)oxy]-pentanoyl]amino-3-(4-methoxy)phenyl-propanoylmethylamide], the IC50 turned out to be 0.15 nM against MMP-9 (gelatinase B) and 9 nM on MMP-2 (gelatinase A).

Regarding `COc1ccc(C[C@H](NC(=O)[C@H](CCCOc2ccc(OC)cc2)CC(=O)NO)C(=O)NC(C)(C)C)cc1` [Compound 49, (2S)-2-[(2R)-2-(2'-Hydroxyamino-2'-oxo-ethyl)-5-[(4-methoxyphenyl)oxy]-pentanoyl]amino-3-(4-methoxy)phenyl-propanoyl-tert-butylamide], the values for the half-maximal inhibitory concentration (IC50) against MMP-9 (gelatinase B) and against MMP-2 (gelatinase A) were 0.42 nM and 26 nM, respectively.

As to `COc1ccc(C[C@H](NC(=O)[C@H](CCCOc2ccc(OC)cc2)CC(=O)NO)C(=O)NCCS(N)(=O)=O)cc1` [Compound 50, 2-[(2S)-2-[(2R)-2-(2'-Hydroxyamino-2'-oxo-ethyl)-5-[(4-methoxyphenyl)oxy]-pentanoyl]amino-3-(4-methoxy)phenylpropanoyl]amino-ethanesulfonamide], the half-maximal inhibitory concentration (IC50) against MMP-9 (gelatinase B) is 0.052 nM; against MMP-2 (gelatinase A), 0.45 nM.

In the case of `CNC(=O)[C@H](Cc1ccc(OC)cc1)NC(=O)[C@H](CCCCOc1ccc(OC)cc1)CC(=O)NO` [Compound 51, (2S)-2-[(2R)-2-(2'-Hydroxyamino-2'-oxo-ethyl)-6-[(4-methoxyphenyl)oxy]-hexanoyl]amino-3-(4-methoxy)phenylpropanoylmethylamide], the 50% inhibitory concentration (IC50) against MMP-9 (gelatinase B) came out at 0.28 nM; against MMP-2 (gelatinase A) it was 2.5 nM.

Regarding `CCOc1ccc(C[C@H](NC(=O)[C@H](CCCOc2ccc(OC)cc2)CC(=O)NO)C(=O)NC)cc1` [Compound 52, (2S)-2-[(2R)-2-(2'-Hydroxyamino-2'-oxo-ethyl)-5-[(4-methoxyphenyl)oxy]-pentanoyl]amino-3-(4-ethoxy)phenylpropanoylmethylamide], the IC50 was 0.12 nM against MMP-9 (gelatinase B) and 1 nM at MMP-2 (gelatinase A).

Take `CCOc1ccc(C[C@H](NC(=O)[C@H](CCCCOc2ccc(OC)cc2)CC(=O)NO)C(=O)NC)cc1` [Compound 53, (2S)-2-[(2R)-2-(2'-Hydroxyamino-2'-oxo-ethyl)-6-[(4-methoxyphenyl)oxy]-hexanoyl]amino-3-(4-ethoxy)phenylpropanoylmethylamide]: the IC50 was found to be 0.32 nM at MMP-9 (gelatinase B) and 3.2 nM on MMP-2 (gelatinase A).

Consider `CNC(=O)[C@@H](NC(=O)[C@H](CCCOc1ccc(OC)cc1)CC(=O)NO)C(C)(C)C` [Compound 54, N-[(2R)-2-(2'-Hydroxyamino-2'-oxo-ethyl)-5-[(4-methoxyphenyl)oxy]-pentanoyl]-L-tert-leucine N-Methylamide], for which the IC50 against MMP-9 (gelatinase B) stood at 0.11 nM; against MMP-2 (gelatinase A) it was 5.6 nM.

Consider `COc1ccc(OCCC[C@H](CC(=O)NO)C(=O)N[C@H](C(=O)NC(C)(C)C)C(C)(C)C)cc1` [Compound 55, N-[(2R)-2-(2'-Hydroxyamino-2'-oxo-ethyl)-5-[(4-methoxyphenyl)oxy]-pentanoyl]-L-tert-leucine N-tert-Butylamide], for which the values for the IC50 on MMP-9 (gelatinase B) and against MMP-2 (gelatinase A) were 0.23 nM and 21 nM, respectively.

On to `COc1ccc(OCCC[C@H](CC(=O)NO)C(=O)N[C@H](C(=O)NCCS(N)(=O)=O)C(C)(C)C)cc1` [Compound 56, 2-[N-[(2R)-2-(2'-Hydroxyamino-2'-oxo-ethyl)-5-[(4-methoxyphenyl)oxy]pentanoyl]-L-tert-leucyl]amino-ethanesulfonamide], for which the IC50 against MMP-9 (gelatinase B) is 0.26 nM; at MMP-2 (gelatinase A) it was 2.3 nM.

On to `CNC(=O)[C@@H]1Cc2ccccc2CN1C(=O)[C@H](CCCOc1ccc(OC)cc1)CC(=O)NO` [Compound 57, N-[(2R)-2-(2'-Hydroxyamino-2'-oxo-ethyl)-5-[(4-methoxyphenyl)oxy]pentanoyl]-L-tetrahydroisoquinoline N-Methylamide], for which the concentration for half-maximal inhibition (IC50) turned out to be 23 nM against MMP-9 (gelatinase B) and 37 nM against MMP-2 (gelatinase A).

On to `CNC(=O)[C@H](Cc1ccccc1)NC(=O)[C@@H](CC(=O)NO)CC(C)(C)COC` [Compound 58, N-[(2R)-2-(2'-Hydroxyamino-2'-oxo-ethyl)-4,4-dimethyl-5-methoxy-pentanoyl]-L-phenylalanine N-Methylamide], for which the IC50 on MMP-9 (gelatinase B) is 2200 nM; on MMP-2 (gelatinase A) it was above 10000 nM.

As for `CNC(=O)[C@H](Cc1ccc(OC)cc1)NC(=O)[C@@H](CC(=O)NO)CC(C)(C)COC` [Compound 59, (2S)-2-[(2R)-2-(2'-Hydroxyamino-2'-oxo-ethyl)-4,4-dimethyl-5-methoxy-pentanoyl]amino-3-(4-methoxy)phenylpropanoyl-methylamide], the values for the concentration for half-maximal inhibition (IC50) on MMP-9 (gelatinase B) and against MMP-2 (gelatinase A) were 1500 nM and 6800 nM, respectively.

In the case of `CNC(=O)[C@@H](NC(=O)[C@@H](CC(=O)NO)CC(C)(C)COC)C(C)(C)C` [Compound 60, N-[(2R)-2-(2'-Hydroxyamino-2'-oxo-ethyl)-4,4-dimethyl-5-methoxy-pentanoyl]-L-tert-leucine N-Methylamide], the IC50 was 6800 nM against MMP-9 (gelatinase B) and above 10000 nM against MMP-2 (gelatinase A).

Regarding `CNC(=O)[C@H](Cc1ccccc1)NC(=O)[C@H](CCCOc1ccc(OC)cc1)CC(=O)OCc1oc(=O)oc1C` [Compound 61], the IC50 against MMP-9 (gelatinase B) is 110 nM; at MMP-2 (gelatinase A), 1000 nM.

For the compound `CCOc1ccc(OCCC[C@H](CC(=O)OCc2oc(=O)oc2C)C(=O)N[C@@H](Cc2ccccc2)C(=O)NC)cc1` [Compound 62], the concentration for half-maximal inhibition (IC50) on MMP-9 (gelatinase B) stood at 120 nM; on MMP-2 (gelatinase A) it was 500 nM.

With `CNC(=O)[C@H](Cc1ccc(OC)cc1)NC(=O)[C@H](CCCOc1ccc(OC)cc1)CC(=O)OCc1oc(=O)oc1C` [Compound 63, (2S)-2-[(2R)-2-(2'-(5-Methyl-2-oxo-1,3-dioxolen-4-yl)-methylene-oxy-2'-oxo-ethyl]-5-[(4-methoxyphenyl)oxy]-pentanoyl]amino-3-(4-methoxy)phenylpropanoylmethylamide], the IC50 against MMP-9 (gelatinase B) was found to be 140 nM; at MMP-2 (gelatinase A), 1600 nM.

With `CNC(=O)[C@H](Cc1ccc(OC)cc1)NC(=O)[C@H](CCCCOc1ccc(OC)cc1)CC(=O)OCc1oc(=O)oc1C` [Compound 64, (2S)-2-[(2R)-2-(2'-(5-Methyl-2-oxo-1,3-dioxolen-4-yl)-methylene-oxy-2'-oxo-ethyl]-6-[(4-methoxyphenyl)oxy]-hexanoyl]amino-3-(4-methoxy)phenylpropanoylmethylamide], the IC50 against MMP-9 (gelatinase B) was determined as 980 nM; against MMP-2 (gelatinase A), 2300 nM.
